Read-outs that look alike come from different tables or passages of the source.
Assays:
ear edema model in mice = experiment: Ear edema model; format: in vivo; conditions: Mus musculus, Croton oil (CO) as inducer, IP
Excerpt: (§1) Evaluation of the therapeutic effects of the novel PRS-211 compounds has now been carried out in a series of experimental systems to support the utility of these drugs as neuroprotectants, anti-inflammatory agents and anti-oxidative agents. These effects have been evaluated both in vitro and in vivo, and have been corroborated utilizing the following systems: • (a) Binding to the NMDA receptor linked channel: Non competitive antagonists of NMDA, the primary example of which is the compound MK-801, bind to a site within the NMDA receptor channel thus preventing the activation of the receptor-channel complex and the consequent neurotoxicity. The ability of various compounds to compete with the binding of tritium labeled MK-801 to brain membranes is considered a measure of their potency as NMDA non-competitive antagonists. • (b) Inhibition of prostaglandin production: The inhibitory effect of the new derivatives of Dexanabinol on prostaglandin synthesis is evaluated in macrophage cell cultures following LPS exposure to induce the inflammatory response. These assays are an indication of the anti-inflammatory activity of the individual analogs. • (c) Inhibition of Tumor Necrosis Factor Alpha: Specific aspects of the inflammatory response cascade are mediated by the cytokine TNFα. Inhibition of TNFα production and/or inhibition of TNFα release by the new analogs are assayed in macrophage cell cultures activated with LPS. This serves as another indication of the general anti-inflammatory potential of the novel compounds. • (d) Nitric Oxide Assay: As one aspect of the anti-oxidative potential of the novel analogs they were tested for their ability to inhibit the enzyme nitric oxide synthase (NOS). This assay can also serve as another indication of the anti-inflammatory cascade, as well as the anti-oxidative mechanisms. • (e) Ear Edema model: The anti-inflammatory activity of the new analogs is screened using an ear edema model in mice. This test system utilizes Croton oil or Arachidonic acid as inflammation inducers. The ability of the test compounds to prevent or diminish the inflammatory response to these stimulants is indicative of their systemic anti-inflammatory capability. • (f) Improved clinical outcome after closed head injury in rats: Severe head injury is associated with high mortality and severe neurological impairment. Animals subjected to head trauma in a controlled fashion serve as models in which to test drugs of therapeutic potential. Test compounds can be evaluated both for improved clinical outcome and for reduction of edema induced by closed head injury. The ability of compounds to reduce the severity of neurological symptoms and to reduce brain edema is considered a measure of their potency in reducing brain damage. • (g) Transient Middle cerebral artery occlusion (MCAo): The middle cerebral artery is the cerebral blood vessel most susceptible to stroke in humans. In animals, coagulation, permanent ligation or permanent placement of an occluding thread in the artery produces a permanent focal stroke affecting the MCA territory. Transient ligation or occlusion results in transient focal stroke. Both transient and permanent focal strokes result in varying degrees of edema and infarction in the affected brain regions. The ability of compounds to reduce the volumes of edema and infarction is considered a measure of their potential as anti-stroke treatment. • (h) Optic Nerve Crush: Application of mechanical pressure to the rat optical nerve results in crush injury of the axons, which is accompanied by immediate changes in oxidative metabolism and delayed axonal death and blindness. […]

NMDA receptor = experiment: Radioligand binding: displacement of [3H]MK-801 from rat forebrain membranes; conditions: for NMDA receptor binding / affinity: MK-801 binding to membranes
Excerpt: as §1

PGE2 = experiment: Inhibition of prostaglandin synthesis (PGE2) in LPS-stimulated macrophage cell cultures; format: cell-based; conditions: LPS-stimulated macrophages
Excerpt: as §1

[1] = Body weight gain during staircase testing after transient MCAo; format: in vivo, rats; conditions: compared to base line
Procedure: (§2) Animals were allowed to recover from the surgery for five days. The mild food deprivation was re-employed during the days following the ischemic insult. They were tested in the staircase box using the above method for 9-12 days. Animals were weighed twice a week during this period.
Animals were kept under mild food deprivation during the staircase testing (except during weekends). Under these conditions, the following results were observed: • Sham and PRS-211,095 10 mg/kg treated rats gained the maximal body weight (15 and 17% respectively compared to base line). […] These differences were not statistically different.

[2] = system: Nitric Oxide Synthase (NOS); experiment: Inhibition of nitric oxide synthase (nitrite fluorimetric assay, LPS-stimulated macrophage cultures); format: cell-based; conditions: LPS-stimulated macrophages
Excerpt: as §1

TNFα = experiment: Inhibition of TNFα in LPS-stimulated macrophage cell cultures (ELISA); format: cell-based; conditions: LPS-stimulated macrophages
Excerpt: as §1

transient MCAo in rats = experiment: Transient MCAo evaluated by the staircase test; format: in vivo
Procedure: The materials for this procedure are identical to those from Physiological Example 5, except for the different concentrations of PRS-211,095. The procedural differences are as follows: • Male Sprague Dawley rats, 230-270 gr (Harlan, Israel) were used. The following compounds and their respective concentrations were tested: • Dexanabinol and analogs PRS-211,095 and PRS-211,220 in PEG ethanol cosolvent 50 mg/ml. Dexanabinol, the analogs and their vehicle were diluted in Intralipid® 20% (Pharmacia) prior to drug administration.
The procedure is essentially as described in Montoya et al. (Montoya, Campbell-Hope, Pemberton and Dunnet, J. Neurosci. Meth. 36:219-228, 1991) Animals were kept under mild food deprivation for 3-5 days, receiving 15-gr. food once a day (between 16:00 and 17:00) and free access to water. Animals were trained prior to the test for 3-5 days according to the protocol of Sharkey et. al. (Sharkey, Crawford, Butcher and Martson, Stroke 27:2282-2286, 1996).
In brief, the staircase box contains two rows of seven stairs in each. Two 45 mg food pellets were placed on each step. Animals were placed in the box for 15 minutes sessions. At the end of the session the number of eaten (grasped) and displaced pellets was counted and recorded. Animals were tested twice a day, 4 hours apart. The first session was performed between 8-9 AM and second between 12-13 PM. The animals were trained until they grasped (ate) at least 8 pellets from each set of stairs for two consecutive sessions. Up to one week after the end of the successful training session the animals underwent transient MCAo. Transient MCAo was performed in essentially the same manner as described in Physiological example 5 with the following modification at step i: • Two minutes prior to thread removal rats were re-anesthetized and administered IV with Dexanabinol 5mg/kg, analogs PRS-211,220 or PRS-211,095 at 0.5, 2.5, 5 or 10 mg/kg or vehicle 5 ml/kg. One additional group was sham-treated.
as §2
At the end of the evaluation period, animals were euthanized with pentobarbitone 100 mg/kg IP. The animals were perfused through the heart with heparinized 4% formaldehyde solution in PBS (pH 7.4). Brains were then removed, and kept in the same solution for at least 24h. Then the brains - from the rostral side of the cortex to the cerebellum- were sunk in 30% sucrose in PBS, cryosectioned (20 µm), dried and stained with thionin for histological evaluation of the brain infarct volume. Eight sections at the levels of: 3.3;+2.8;+1.8; +0.8; -0.4;-1.4; -2.2; and -3.4 from Bregma were measured (Swanson, Rat Brain Atlas, 1992). Sections were captured by a CCD camera (V-tech MP-470) and image analyzed (Scion image 1.62A). Infarct size was determined from the series of the 8 sections by either calculation of the infarct volume (mm3) by summing the series of mean lesion areas of two adjacent sections multiplied by the distance between them or calculation of the mean infarct size as percentage of the contralateral hemisphere size; calculation of the mean of the surviving ipsilateral side as percentage of the contralateral hemisphere size; calculation of the mean ipsilateral side ventricle as percentage of the contralateral hemisphere ventricle.
• a. The infarct size was compared using ANOVA (analysis of variance) followed by Duncan's post hoc test. • b. […]

[3] = system: transient middle cerebral artery occlusion in rats; experiment: Transient middle cerebral artery occlusion (MCAo), infarct size evaluation; format: in vivo; conditions: IV, one week after the ischemic insult
Excerpt: Experimental design. The design was a randomized one, performed in a masked fashion as to whether drug or vehicle was being given, and an attempt was made to generate approximately equal numbers of drug- and vehicle-treated animals.
• a. Male rats (8 /treatment group) 320-380 gr. (Harlan Israel). • b. Halothane (Rhone Poulenc France) • c. Pentobarbitone (Pental Veterinary, CTS Israel). • d. Poly - L - Lysine (Sigma, USA). • e. Silk suture material 3-0 and 4-0. • f. Nylon (Polyamid) suture material 3-0. Four cm pieces were cut and positioned in a solution of 1% Poly - L - Lysine for 1 minute and dried in an oven (60 ° C) for 60 minutes. The tip of each piece was rounded under a flame. • g. Saline (Teva Medical). • h. Blank cremophor ethanol cosolvent (Pharmos). • i. Dexanabinol in cremophor ethanol cosolvent 50 mg/ml. (Both Dexanabinol and its vehicle were diluted in saline prior to drug administration. • j. Analogs PRS-211,092, PRS-211,095, PRS-211,128 PRS-211,132 and PRS-211,220 in cremophor ethanol cosolvent, 50 mg/ml. • k. The analogs were diluted in saline prior to drug administration.
• a. Surgical details of the MCAo method used for testing dexanabinol analogs, are presented in Belayev, et al., (Belayev, Busto, Weizhao, and Ginsberg, Stroke 26:2313-2319, 1995) which is incorporated herein in its entirety by reference. • b. Two hours after the start of MCAO, the animals were reanesthetized with halothane, the neck wound was re-opened and the nylon thread pulled out of the Internal carotid artery (ICA). The skin wound was then closed with 3-0 silk suture material and the animals allowed to recover from the anesthesia. • c. Three sets of animals were tested. In the first test immediately (2+0 hours) before thread removal the animals were injected IV with either analogs PRS-211,095, PRS-211,128, PRS-211,132, or Dexanabinol (PRS-211,007) each at a dosage of 5 mg/kg. One group of animals was treated with 5ml/kg vehicle alone. In another group, the animals subjected to "sham" operation, the suture was passed into the ICA, as described above, but immediately withdrawn. In the second set dexanabinol, PRS-211,092, PRS-211,095 and PRS-211,220 were used, at 2+0 hours. In the third set dexanabinol, PRS-211,092, PRS-211,095 and PRS-211,220 were administered 1 hour after thread removal (2+1 hours). Laser Doppler Flow (LDF) determined the success of MCAo - a drop of more then 50% in cerebral blood flow was considered as a sign of successful MCAo. Although LDF was a helpful corroborative sign, clinical outcome remained the final inclusion/exclusion criterion, since, with the exception of the PRS-211,220 staircase study, LDF was introduced only after initiation of the study.
A detailed investigation of neurological performance was carried out on the first, third and the 7th day after the MCAo. Two parameters were examined: posture and the flexion reflex (based on Nokon and Chuang, NeuroReport 9, 1998: 2081-2084). Animals were scored according to their performance:
One week after the ischemic insult, animals were euthanized with pentobarbitone 100 mg/kg IP. The animals were perfused through the heart with heparinized 4% formaldehyde solution in PBS (pH 7.4). Brains were then removed, and kept in the same solution before preparation for histological evaluation of the brain infarct volume.

[4] = system: rat model of myocardial ischemia; experiment: Rat model of myocardial ischemia and reperfusion; format: in vivo, rats; conditions: given 15 minutes before occlusion; 45 minutes occlusion, 4 hours reperfusion; versus vehicle
[5] = displacement of [3H]MK-801, rat forebrain membranes, read-out: NMDA BINDING IC50

SMILES: CCCCCCC(C)(C)c1cc(O)c2c(c1)OC(C)(C)[C@H]1CC=C(Cn3cccn3)C[C@H]21 [211,220-000, (+)-(3S,4S)-6,6-Dimethyl-(1,1-dimethylheptyl)-1-hydroxy-9-(pyrazolomethyl)-6a,7,10,10a-tetrahydro-6H-dibenzo[b,d]pyran]
- ED50 (ear edema model in mice): 57 µmol/kg
- NMDA receptor binding / affinity (NMDA receptor): relatively high affinity
- IC50 (NMDA receptor; [3H]MK-801 binding, text to Figure 2, read-out: mean IC50): 350 nM
- IC50 (NMDA receptor; [5]): 350 nM
- inhibition at 10 µM (PGE2): 47%
- body weight gain ([1]; 0.1 mg/kg): 3%
- body weight gain ([1]; 0.5 mg/kg): 10%
- body weight gain ([1]; 2.5 mg/kg): 5%
- body weight gain ([1]; 5 mg/kg): 4%
- inhibition at 10 µM [2]: 11%
- inhibition at 10 µM (TNFα): 11%
- pellet consumption, improvement over vehicle (transient MCAo in rats; 0.1 mg/kg, contralateral): 20-30%
- pellet consumption, improvement relative to vehicle alone (transient MCAo in rats; 0.5 mg/kg, contralateral, p<0.05): > 60%
- potency relative to PRS-211,095 and dexanabinol (transient MCAo in rats; 0.5 mg/kg, session 3 of the staircase): at least 10 times
- pellet consumption, improvement over vehicle (transient MCAo in rats; 2.5 mg/kg, contralateral): 20-30%
- pellet consumption, improvement over vehicle (transient MCAo in rats; 5.0 mg/kg, contralateral): 20-30%
- Mortality Rate(%) (transient MCAo in rats; Table 5, 0.1 mg/kg IV): 25%
- No. Dead Animals (transient MCAo in rats; Table 5, 0.1 mg/kg IV): 4
- Mortality Rate(%) (transient MCAo in rats; Table 5, 0.5 mg/kg IV): 18.75%
- No. Dead Animals (transient MCAo in rats; Table 5, 0.5 mg/kg IV): 3
- Mortality Rate(%) (transient MCAo in rats; Table 5, 2.5 mg/kg IV): 30.7%
- No. Dead Animals (transient MCAo in rats; Table 5, 2.5 mg/kg IV): 4
- Mortality Rate(%) (transient MCAo in rats; Table 5, 5 mg/kg IV): 14%
- No. Dead Animals (transient MCAo in rats; Table 5, 5 mg/kg IV): 2

SMILES: CCCCCCC(C)(C)c1cc(O)c2c(c1)OC(C)(C)[C@H]1CC=C(CSc3ncc[nH]3)C[C@H]21 (single isomer, unassigned) [211,092-000]
- reduction of infarct size [3]: 52%
- ED50 (ear edema model in mice): 28 µmol/kg
- NMDA receptor binding / affinity (NMDA receptor): low affinity
- IC50 (NMDA receptor; [5]): > 50000 nM
- infarct size (AN/AR, AN/LV) [4]: clear decrease in infarct size
- inhibition at 10 µM (PGE2): 57%
- inhibition at 10 µM [2]: 0%
- inhibition at 10 µM (TNFα): 22%
